Test results reported in ChEMBL document CHEMBL1201862, “PubChem BioAssay data set” (2004).
Calls of active or inactive are those of the source.

Columns and labels:
[1] = target: DNA dC->dU-editing enzyme APOBEC-3A (Homo sapiens, UniProt P31941); assay: Dose Response confirmation of small molecule APOBEC3A DNA Deaminase Inhibitors via a fluorescence-based single-stranded DNA deaminase assay. [Related pubchem assays (depositor defined):AID493011, AID493024]; format: functional
[2] = target: T1, Carboxy-terminal domain RNA polymerase II polypeptide A small phosphatase 1 (Homo sapiens, UniProt Q9GZU7); assay: inhibitors of CTDSP1, concentration-response testing, biochemical assay, absorbance-based, actives from ultra-high-throughput screening (AID 540297); format: functional
T1 sequence (Q9GZU7 whole entry): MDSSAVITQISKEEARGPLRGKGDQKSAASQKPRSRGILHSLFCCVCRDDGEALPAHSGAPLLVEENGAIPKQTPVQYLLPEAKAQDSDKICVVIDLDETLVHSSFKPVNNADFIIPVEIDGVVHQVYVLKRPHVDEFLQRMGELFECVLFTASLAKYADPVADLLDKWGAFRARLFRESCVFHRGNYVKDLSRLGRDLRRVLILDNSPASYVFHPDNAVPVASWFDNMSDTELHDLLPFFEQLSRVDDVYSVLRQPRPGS

[3] = target: Cytochrome P450 2D6 (Homo sapiens, UniProt P10635);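 further: CYP2D6 member of a cytochrome P450 panel assay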
[4] = NIH-3T3 fibroblast cytotoxicity, dose response, cytotoxicity control, cell-based, fluorescence, Alamar Blue, secondary assay (AID 2327); format: functional;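 further: NIH-3T3 mouse fibroblasts cultured with fluconazole at 8 µg/mL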
[5] = cells; format: functional, cell-based
[6] = C. albicans growth with fluconazole, confirmation, fluorescence, retest (AID 2467); format: functional, cell-based
[7] = microbe, parasite or virus in culture; format: functional; settings: Mycobacterium tuberculosis
[8] = cells; format: functional, cell-based; remark: listed apart in the source
[9] = target: T2, Serine/threonine-protein phosphatase (Candida dubliniensis (strain CD36 / CBS 7987 / NCPF 3949 / NRRLY-17841) (Yeast), UniProt B9W6M3); assay: calcineurin pathway inhibitors in yeast reporter, dose response, S. cerevisiae, CDRE-lacZ, luminescence, secondary (AID 2388); format: functional, cell-based;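 further: yeast reporter cells carrying a calcineurin-responsive lacZ construct stimulated with calcium chloride; luminescent beta-galactosidase reporter signal in whole cells rather than isolated phosphatase activity; potency for inhibition where a drop in reporter signal means calcineurin blockade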
T2 sequence (B9W6M3 whole entry): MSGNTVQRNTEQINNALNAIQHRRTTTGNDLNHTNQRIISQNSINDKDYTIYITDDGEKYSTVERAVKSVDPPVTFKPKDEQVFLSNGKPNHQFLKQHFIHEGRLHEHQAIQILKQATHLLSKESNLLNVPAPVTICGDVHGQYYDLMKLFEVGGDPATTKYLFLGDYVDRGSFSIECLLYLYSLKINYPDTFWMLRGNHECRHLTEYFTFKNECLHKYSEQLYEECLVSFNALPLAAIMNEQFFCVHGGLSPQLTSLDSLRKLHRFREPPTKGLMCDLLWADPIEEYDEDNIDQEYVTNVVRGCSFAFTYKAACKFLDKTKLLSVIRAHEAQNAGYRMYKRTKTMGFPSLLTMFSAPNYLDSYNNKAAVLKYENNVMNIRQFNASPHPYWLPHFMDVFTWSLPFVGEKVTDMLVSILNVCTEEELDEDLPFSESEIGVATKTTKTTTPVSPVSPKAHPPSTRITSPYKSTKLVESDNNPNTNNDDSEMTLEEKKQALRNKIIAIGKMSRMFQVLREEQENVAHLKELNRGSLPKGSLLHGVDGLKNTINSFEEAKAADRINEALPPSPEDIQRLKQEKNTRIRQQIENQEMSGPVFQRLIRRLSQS

[10] = cytotoxicity in HEK-293T cells, dose response, cytotoxicity control for TCR NF-kB inhibitor project, luminescence, T-cell screen hits (AID 489026); format: functional, cell-based;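 further: cells exposed to compound about 14 hours before the viability readout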
[11] = target: Heat shock protein HSP 90-alpha (Homo sapiens, UniProt P07900); format: functional, organism-based
[12] = test system: INS1; assay: beta cell apoptosis inhibitors, cytokine rescue, dose response, luminescence, retest (AID 449756); format: functional, cell-based; settings: Rattus norvegicus;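 further: cell death triggered by IL-1 beta plus TNF-alpha plus IFN-gamma mixture; protective hits raise ATP signal compared with cytokine alone wells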
[13] = target: ATP-dependent molecular chaperone HSP82 (Candida albicans (strain WO-1) (Yeast), UniProt C4YTQ8); assay: loss of DOC-induced GRE-beta-galactosidase reporter signal, dose response, Hsp90 inhibitor project, S. cerevisiae, luminescence (AID 2400); format: functional, cell-based;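 further: beta-galactosidase luminescence from glucocorticoid response element reporter as proxy for Hsp90 function; inhibitor potency where signal loss means Hsp90 inhibition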
[14] = test system: Escherichia coli; assay: microbe, parasite or virus in culture
[15] = target: Photoreceptor-specific nuclear receptor (Homo sapiens, UniProt Q9Y5X4); format: functional;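 further: potency for compounds that break the NR2E3 corepressor complex and count as activators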
[16] = target: Peroxisome proliferator-activated receptor gamma/Nuclear receptor coactivator 1 (Homo sapiens, UniProt P37231); assay: (§1) TR-FRET dose response biochemical High Throughput Screening assay for agonists of the steroid receptor coactivator 1 (SRC-1) recruitment by the peroxisome proliferator-activated receptor gamma (PPAR gamma): non-selective agonists. [Related pubchem assays (depositor defined):AID1300, AID1808, AID504735, AID631]; format: protein assay
[17] = target: Peroxisome proliferator-activated receptor gamma/Nuclear receptor coactivator 3 (Homo sapiens, UniProt P37231); assay: as §1, with “3 (SRC-3)” for “1 (SRC-1)”, “assays: 1301 (Confirmation screen.), 1048 (Primary screen.)]” for “assays (depositor defined):AID1300, AID1808, AID504735, AID631]”; format: functional
[18] = target: Peroxisome proliferator-activated receptor gamma/Nuclear receptor coactivator 2 (Homo sapiens, UniProt P37231); assay: TR-FRET dose response biochemical High Throughput Screening assay for agonists of the steroid receptor coactivator 2 (SRC-2) recruitment by the peroxisome proliferator-activated receptor gamma (PPAR gamma): non-selective agonists. [Related pubchem assays: 1297, 1032 ]; format: functional
[19] = target: Peroxisome proliferator-activated receptor gamma/Nuclear receptor corepressor 2 (Homo sapiens, UniProt P37231+Q9Y618); format: functional
[20] = target: Keap1/Nrf2 (Homo sapiens, UniProt Q14145); assay: Keap1-Nrf2 protein-protein interaction inhibitors, dose response, biochemical, fluorescence polarization, cherry-picked samples (AID 588683)
[21] = target: Cytochrome P450 2C19 (Homo sapiens, UniProt P33261); assay: Cytochrome panel assay with activity outcomes. Panel member name: p450-cyp2c19 Compounds with AC50 equal or less than 10 uM are considered active; format: functional; settings: read-out: AC50
[22] = target: Cytochrome P450 2C9 (Homo sapiens, UniProt P11712)

Sequence of Cytochrome P450 2D6 (P10635 whole entry): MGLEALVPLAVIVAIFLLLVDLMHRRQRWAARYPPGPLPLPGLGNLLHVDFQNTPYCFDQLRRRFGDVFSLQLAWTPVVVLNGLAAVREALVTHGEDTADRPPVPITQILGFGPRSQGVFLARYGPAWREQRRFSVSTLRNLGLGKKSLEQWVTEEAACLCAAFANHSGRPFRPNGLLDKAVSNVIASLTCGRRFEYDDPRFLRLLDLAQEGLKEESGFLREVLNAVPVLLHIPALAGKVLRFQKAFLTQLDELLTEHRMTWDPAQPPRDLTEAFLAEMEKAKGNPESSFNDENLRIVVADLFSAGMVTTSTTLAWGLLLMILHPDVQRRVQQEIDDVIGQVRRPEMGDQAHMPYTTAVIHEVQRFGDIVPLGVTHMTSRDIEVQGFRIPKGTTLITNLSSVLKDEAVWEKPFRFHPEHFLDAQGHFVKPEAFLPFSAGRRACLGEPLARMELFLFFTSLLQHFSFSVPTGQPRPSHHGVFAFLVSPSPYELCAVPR
Sequence of Peroxisome proliferator-activated receptor gamma/Nuclear receptor coactivator 1 (P37231 whole entry): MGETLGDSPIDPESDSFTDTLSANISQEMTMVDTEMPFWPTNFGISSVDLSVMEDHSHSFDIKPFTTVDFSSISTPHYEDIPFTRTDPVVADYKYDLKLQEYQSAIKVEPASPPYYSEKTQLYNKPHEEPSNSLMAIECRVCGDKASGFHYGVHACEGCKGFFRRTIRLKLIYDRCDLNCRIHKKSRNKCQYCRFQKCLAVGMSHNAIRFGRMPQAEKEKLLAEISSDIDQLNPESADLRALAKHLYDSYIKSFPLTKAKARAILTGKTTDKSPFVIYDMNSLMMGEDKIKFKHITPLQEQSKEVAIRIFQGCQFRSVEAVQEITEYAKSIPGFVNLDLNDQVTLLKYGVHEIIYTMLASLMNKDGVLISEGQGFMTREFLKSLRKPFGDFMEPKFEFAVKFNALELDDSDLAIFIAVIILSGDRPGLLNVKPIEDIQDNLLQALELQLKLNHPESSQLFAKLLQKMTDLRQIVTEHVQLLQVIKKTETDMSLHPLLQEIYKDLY
Sequence of Peroxisome proliferator-activated receptor gamma/Nuclear receptor coactivator 1 (Q15788 whole entry, further chain): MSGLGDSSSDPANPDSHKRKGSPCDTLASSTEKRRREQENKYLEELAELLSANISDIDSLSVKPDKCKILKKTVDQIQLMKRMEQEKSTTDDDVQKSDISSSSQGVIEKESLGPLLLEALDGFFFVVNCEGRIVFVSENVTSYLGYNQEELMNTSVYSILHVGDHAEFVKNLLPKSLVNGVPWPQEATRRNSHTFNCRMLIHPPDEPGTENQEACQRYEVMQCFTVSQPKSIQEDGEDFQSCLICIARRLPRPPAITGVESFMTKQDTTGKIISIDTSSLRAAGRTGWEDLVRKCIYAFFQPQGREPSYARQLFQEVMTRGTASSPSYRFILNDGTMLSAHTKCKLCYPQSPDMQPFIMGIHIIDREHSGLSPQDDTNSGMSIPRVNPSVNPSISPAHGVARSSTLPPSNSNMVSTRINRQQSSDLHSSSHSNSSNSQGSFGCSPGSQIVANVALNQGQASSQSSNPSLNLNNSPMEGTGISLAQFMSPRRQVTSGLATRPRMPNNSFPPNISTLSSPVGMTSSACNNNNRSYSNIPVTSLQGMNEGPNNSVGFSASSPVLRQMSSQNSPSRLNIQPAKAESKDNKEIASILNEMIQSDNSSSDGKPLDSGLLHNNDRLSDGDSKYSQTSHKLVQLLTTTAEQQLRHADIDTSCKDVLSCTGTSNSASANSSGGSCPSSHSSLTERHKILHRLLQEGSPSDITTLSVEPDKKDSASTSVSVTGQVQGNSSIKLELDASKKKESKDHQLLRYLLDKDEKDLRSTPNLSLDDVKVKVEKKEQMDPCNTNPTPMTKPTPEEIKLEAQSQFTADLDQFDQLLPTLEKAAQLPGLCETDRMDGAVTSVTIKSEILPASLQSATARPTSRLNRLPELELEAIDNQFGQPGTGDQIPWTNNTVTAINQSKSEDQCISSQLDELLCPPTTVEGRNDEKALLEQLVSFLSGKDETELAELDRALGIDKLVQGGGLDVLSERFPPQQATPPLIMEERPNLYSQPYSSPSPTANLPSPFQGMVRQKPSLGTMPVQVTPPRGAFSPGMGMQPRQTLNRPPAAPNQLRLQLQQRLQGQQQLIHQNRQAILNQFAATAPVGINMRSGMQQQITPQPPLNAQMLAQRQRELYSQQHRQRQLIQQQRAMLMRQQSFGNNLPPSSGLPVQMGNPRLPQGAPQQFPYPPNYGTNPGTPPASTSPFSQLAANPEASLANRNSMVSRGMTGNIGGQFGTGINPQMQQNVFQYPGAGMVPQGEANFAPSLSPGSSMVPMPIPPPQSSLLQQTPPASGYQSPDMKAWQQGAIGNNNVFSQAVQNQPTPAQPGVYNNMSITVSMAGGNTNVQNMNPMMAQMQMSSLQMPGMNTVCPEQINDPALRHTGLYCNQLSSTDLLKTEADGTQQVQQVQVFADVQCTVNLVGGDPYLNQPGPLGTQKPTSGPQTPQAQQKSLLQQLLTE
Sequence of Peroxisome proliferator-activated receptor gamma/Nuclear receptor coactivator 2 (P37231 whole entry): as the sequence (P37231 whole entry) above
Sequence of Peroxisome proliferator-activated receptor gamma/Nuclear receptor coactivator 2 (Q15596 whole entry, further chain): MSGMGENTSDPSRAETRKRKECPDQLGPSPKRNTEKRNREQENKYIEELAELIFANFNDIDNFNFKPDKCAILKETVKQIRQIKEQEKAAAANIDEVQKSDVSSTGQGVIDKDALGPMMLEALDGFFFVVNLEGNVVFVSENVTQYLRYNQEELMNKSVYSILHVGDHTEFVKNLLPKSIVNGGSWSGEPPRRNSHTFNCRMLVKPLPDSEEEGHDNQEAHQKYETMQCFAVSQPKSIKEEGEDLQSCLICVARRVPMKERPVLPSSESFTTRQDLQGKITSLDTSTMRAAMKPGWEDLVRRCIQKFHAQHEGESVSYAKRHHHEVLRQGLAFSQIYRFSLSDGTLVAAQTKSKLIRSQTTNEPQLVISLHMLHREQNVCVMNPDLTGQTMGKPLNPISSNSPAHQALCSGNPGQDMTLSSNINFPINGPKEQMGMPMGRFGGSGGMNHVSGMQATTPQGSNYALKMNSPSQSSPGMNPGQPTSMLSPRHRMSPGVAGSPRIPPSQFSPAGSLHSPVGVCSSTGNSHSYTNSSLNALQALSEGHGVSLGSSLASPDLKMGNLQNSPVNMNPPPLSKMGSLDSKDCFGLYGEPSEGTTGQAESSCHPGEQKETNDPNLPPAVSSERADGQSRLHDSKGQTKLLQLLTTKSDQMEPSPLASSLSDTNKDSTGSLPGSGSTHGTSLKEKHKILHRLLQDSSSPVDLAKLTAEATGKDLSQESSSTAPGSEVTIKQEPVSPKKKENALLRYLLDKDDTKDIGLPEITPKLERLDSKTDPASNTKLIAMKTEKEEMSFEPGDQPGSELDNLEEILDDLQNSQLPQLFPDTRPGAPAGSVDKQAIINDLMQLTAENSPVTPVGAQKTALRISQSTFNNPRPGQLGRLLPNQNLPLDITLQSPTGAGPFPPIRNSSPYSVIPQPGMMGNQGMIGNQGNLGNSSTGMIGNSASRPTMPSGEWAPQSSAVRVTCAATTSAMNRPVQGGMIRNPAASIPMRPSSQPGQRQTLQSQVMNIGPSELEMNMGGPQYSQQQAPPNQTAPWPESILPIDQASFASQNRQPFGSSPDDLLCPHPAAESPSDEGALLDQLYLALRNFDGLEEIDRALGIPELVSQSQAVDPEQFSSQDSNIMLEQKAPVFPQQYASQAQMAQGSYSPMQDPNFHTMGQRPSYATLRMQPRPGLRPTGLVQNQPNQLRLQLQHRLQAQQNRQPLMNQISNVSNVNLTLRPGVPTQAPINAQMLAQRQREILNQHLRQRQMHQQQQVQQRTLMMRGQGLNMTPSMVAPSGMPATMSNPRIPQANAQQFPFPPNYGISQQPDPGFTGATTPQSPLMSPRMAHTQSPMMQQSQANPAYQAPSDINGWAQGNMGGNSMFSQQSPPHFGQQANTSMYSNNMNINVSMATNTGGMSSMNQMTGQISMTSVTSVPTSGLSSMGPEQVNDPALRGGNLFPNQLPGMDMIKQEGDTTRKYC
Sequence of DNA dC->dU-editing enzyme APOBEC-3A (P31941 whole entry, the tested form may be a part): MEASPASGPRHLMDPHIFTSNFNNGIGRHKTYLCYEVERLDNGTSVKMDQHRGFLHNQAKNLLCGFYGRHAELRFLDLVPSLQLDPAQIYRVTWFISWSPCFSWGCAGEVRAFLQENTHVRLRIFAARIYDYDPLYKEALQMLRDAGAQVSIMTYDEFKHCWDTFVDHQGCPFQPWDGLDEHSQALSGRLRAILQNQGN
Sequence of Photoreceptor-specific nuclear receptor (Q9Y5X4 whole entry): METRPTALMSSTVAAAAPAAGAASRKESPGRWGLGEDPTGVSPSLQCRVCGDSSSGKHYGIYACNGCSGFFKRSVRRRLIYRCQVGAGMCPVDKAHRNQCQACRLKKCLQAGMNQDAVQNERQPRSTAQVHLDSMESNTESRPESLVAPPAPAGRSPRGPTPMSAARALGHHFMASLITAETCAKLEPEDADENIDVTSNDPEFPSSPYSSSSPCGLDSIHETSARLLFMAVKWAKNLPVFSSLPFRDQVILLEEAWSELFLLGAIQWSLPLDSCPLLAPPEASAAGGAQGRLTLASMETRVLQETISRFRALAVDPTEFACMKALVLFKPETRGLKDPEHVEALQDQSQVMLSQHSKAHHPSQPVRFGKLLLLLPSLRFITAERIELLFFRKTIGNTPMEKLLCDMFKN

CC(C)[N+]12CCC(CC1)C(C(O)(c1ccccc1)c1ccccc1)C2 (stereo unspecified)
IC50 [1]: 2.71 µM (active)
IC50 [2]: 8.96 µM (active)

C[C@]12CC[C@H]3c4ccc(O)cc4CC[C@@H]3[C@H]1C/C(=N/O)[C@H]2O
AC50 [3]: inconclusive

COc1cccc(/C=N/Nc2ncnc3scc(-c4ccccc4)c23)c1O
EC50 [4]: > 150 µM (inactive)
EC50 [5]: 2.21 µM (active)
EC50 [6]: 0.753 µM (active)
CC50 [7]: 1.31 µM (active)
EC50 [8]: > 350 µM (not active)
EC50 [9]: > 180 µM (inactive)
IC50 [10]: 62.5 µM (inactive)
AC50 [11]: 24.5 µM (active)
AC50 [12]: 0.432 µM (active)
EC50 [13]: 17.7 µM (active)

CN(CC(=O)NCc1cccnc1)S(=O)(=O)c1ccccc1
AC50 [14]: 54.1 µM (active)

O=C(C1=C(O)C(=O)N(CCc2ccccc2)C1c1ccncc1)c1cc2ccccc2o1 (stereo unspecified)
IC50 [15]: > 39.8 µM (not active)
EC50 [16]: > 79.4 µM (inactive)
EC50 [17]: > 79.4 µM (not active)
EC50 [18]: 26.1 µM (not active)
IC50 [19]: 7.02 µM (active)

CN1CC=C2C(C#N)=C(N)C(C#N)(C#N)[C@H](c3cccs3)[C@H]2C1
AC50 [20]: > 52 µM (inactive)

CCn1c(=O)cc(SCC(=O)Nc2cc(OC)c(OC)c(OC)c2)c2ccccc21
EC50 [16]: > 79.4 µM (inactive)
EC50 [17]: > 79.4 µM (not active)
EC50 [18]: 76.2 µM (not active)
AC50 [21]: 0.355 µM (inconclusive)
AC50 [3]: inconclusive
AC50 [22]: inconclusive
